According to patent US9375459B2, “Cyclic peptides with an anti-neoplasic and anti-angiogenic activity” (priority 2011, dated 2016):
Where a SMILES comes first, the peptide text is derived from it. Where no end group is shown, it is not given here.

Tested on: human tumor cells
Assay: Cytotoxic activity screening of peptide library on human tumor cell lines, SRB method
Format: cell-based
Conditions: SRB method; cytotoxic = dose-dependent 50% inhibition of proliferation, GI50 below 100 μM in at least one cell line
Protocol: Negative control cells were cultured on a volume of vehicle equal to that of the experimental samples. An “x-y” curve (dose-response) was established with the percent of surviving cells, compared in respect to the negative control cells, and the following parameters were estimated: 50% growth inhibition (GI50); Total growth inhibition (TGI); and the lethal concentration 50 (LC50), that is the concentration causing the 50% of cell death (Boyd M R, Paull K D, and Rubinstein L R (1992) “Data display and analysis strategies for the NCI Disease Oriented In-Vitro Antitumor Drug Screen, in Cytotoxic Anticancer Drugs: Models and Concept for Drug Discovery and Development” (Baleriote F A, Corbett T H and Baker L H eds) pp 11-34, Kluwer Academia Publishers, Boston).
Were considered as cytotoxic peptides all those peptides being able of inhibiting 50% of the cellular proliferation, in a dose-dependent manner, and showing GI50 values below 100 μM, at least in one of the cell lines studied. The human tumor cell lines used were: HEp-2 (larynx carcinoma), A549 (lung epithelial adenocarcinoma), M14 (melanoma), Colo 205 (colon adenocarcinoma), Ls174T (colon adenocarcinoma), LnCAP (prostate carcinoma), PC-3 (prostate carcinoma) and H 125 (non-small cell lung adenocarcinoma). Represented are primary sequences for the designed peptides, the code used for its generation and their respective cytotoxic capacity on human tumor cells.

Row | Compound | Cytotoxic activity in vitro
1 | CC[C@H](C)[C@H](NC(=O)[C@H](CCCNC(=N)N)NC(=O)[C@H](CCC(N)=O)NC(=O)[C@H](CC(N)=O)NC(=O)[C@H](C)NC(=O)[C@@H](NC(=O)[C@H](Cc1ccc(O)cc1)NC(=O)CNC(=O)[C@H](CO)NC(=O)[C@H](Cc1ccccc1)NC(=O)[C@H](CC(=O)O)NC(=O)[C@H](Cc1ccccc1)NC(=O)[C@@H](NC(=O)[C@H](CC(=O)O)NC(=O)[C@H](CC(N)=O)NC(=O)CNC(=O)CNC(=O)[C@H](C)NC(=O)[C@@H](N)CC(=O)O)[C@@H](C)O)[C@@H](C)O)C(=O)N[C@@H](CC(N)=O)C(N)=O [Peptide M07P39] (H-DAGGNDTFDFSGYTANQRIN-NH2) | − (symbol − indicates its absence, following criteria established in Example 2)
2 | CC[C@H](C)[C@H](NC(=O)[C@H](CC(=O)O)NC(=O)[C@H](CCCCN)NC(=O)CNC(=O)[C@H](C)NC(=O)CNC(=O)CNC(=O)[C@H](Cc1c[nH]c2ccccc12)NC(=O)[C@H](CC(C)C)NC(=O)[C@H](CCC(=O)O)NC(=O)[C@@H](N)CC(=O)O)C(=O)N[C@@H](Cc1ccccc1)C(=O)N[C@H](C(=O)N[C@@H](Cc1ccccc1)C(=O)N[C@@H](CO)C(=O)N[C@@H](C)C(=O)N[C@@H](C)C(=O)N[C@@H](CO)C(=O)N[C@@H](CC(=O)O)C(=O)N[C@@H](CO)C(N)=O)C(C)C [Peptide O07P102] (H-DELWGGAGKDIFVFSAASDS-NH2) | − (symbol − indicates its absence, following criteria established in Example 2)
3 | CC[C@H](C)[C@H](N)C(=O)N[C@@H](Cc1ccccc1)C(=O)N[C@H](C(=O)N[C@@H](Cc1ccccc1)C(=O)N[C@@H](CO)C(=O)N[C@@H](C)C(=O)N[C@@H](C)C(=O)N[C@@H](CO)C(=O)N[C@@H](CC(=O)O)C(=O)N[C@@H](CO)C(=O)N[C@@H](C)C(=O)N1CCC[C@H]1C(=O)NCC(=O)N[C@@H](C)C(=O)N[C@@H](CO)C(=O)N[C@@H](CC(=O)O)C(=O)N[C@@H](Cc1c[nH]c2ccccc12)C(=O)N[C@H](C(=O)N[C@@H](CCCNC(=N)N)C(=O)N[C@@H](CC(=O)O)C(N)=O)[C@@H](C)CC)C(C)C [Peptide O07P103] (H-IFVFSAASDSAPGASDWIRD-NH2) | − (symbol − indicates its absence, following criteria established in Example 2)
4 | CC[C@H](C)[C@H](NC(=O)CNC(=O)[C@H](CCCCN)NC(=O)[C@H](CCC(N)=O)NC(=O)[C@H](Cc1ccccc1)NC(=O)[C@H](CC(=O)O)NC(=O)[C@H](CCCNC(=N)N)NC(=O)[C@@H](NC(=O)[C@H](Cc1c[nH]c2ccccc12)NC(=O)[C@H](CC(=O)O)NC(=O)[C@H](CO)NC(=O)[C@H](C)NC(=O)CNC(=O)[C@@H]1CCCN1C(=O)[C@H](C)N)[C@@H](C)CC)C(=O)N[C@@H](CC(=O)O)C(=O)N[C@@H](CCCCN)C(=O)N[C@H](C(=O)N[C@@H](CC(=O)O)C(=O)N[C@@H](CC(C)C)C(N)=O)[C@@H](C)CC [Peptide O07P104] (H-APGASDWIRDFQKGIDKIDL-NH2) | − (symbol − indicates its absence, following criteria established in Example 2)
5 | CC[C@H](C)[C@H](NC(=O)CNC(=O)[C@H](CCCCN)NC(=O)[C@H](CCC(N)=O)NC(=O)[C@@H](N)Cc1ccccc1)C(=O)N[C@@H](CC(=O)O)C(=O)N[C@@H](CCCCN)C(=O)N[C@H](C(=O)N[C@@H](CC(=O)O)C(=O)N[C@@H](CC(C)C)C(=O)N[C@@H](CO)C(=O)N[C@@H](Cc1ccccc1)C(=O)N[C@@H](Cc1ccccc1)C(=O)N[C@@H](CC(N)=O)C(=O)N[C@@H](CCCCN)C(=O)N[C@@H](CCC(=O)O)C(=O)N[C@@H](C)C(=O)N[C@@H](CC(N)=O)C(=O)N[C@@H](CO)C(=O)N[C@@H](CO)C(N)=O)[C@@H](C)CC [Peptide O07P105] (H-FQKGIDKIDLSFFNKEANSS-NH2) | − (symbol − indicates its absence, following criteria established in Example 2)
6 | CC[C@H](C)[C@H](NC(=O)[C@H](Cc1ccccc1)NC(=O)[C@H](CC(=O)O)NC(=O)[C@H](CO)NC(=O)[C@H](CO)NC(=O)[C@H](CC(N)=O)NC(=O)[C@H](C)NC(=O)[C@H](CCC(=O)O)NC(=O)[C@H](CCCCN)NC(=O)[C@H](CC(N)=O)NC(=O)[C@H](Cc1ccccc1)NC(=O)[C@H](Cc1ccccc1)NC(=O)[C@@H](N)CO)C(=O)N[C@@H](Cc1c[nH]cn1)C(=O)N[C@@H](Cc1ccccc1)C(=O)N[C@H](C(=O)N[C@@H](CC(=O)O)C(=O)N[C@@H](Cc1c[nH]cn1)C(=O)N[C@@H](Cc1ccccc1)C(=O)N[C@@H](CO)C(N)=O)C(C)C [Peptide O07P106] (H-SFFNKEANSSDFIHFVDHFS-NH2) | − (symbol − indicates its absence, following criteria established in Example 2)
7 | CC[C@H](C)[C@H](NC(=O)[C@H](Cc1ccccc1)NC(=O)[C@@H](N)CC(=O)O)C(=O)N[C@@H](Cc1c[nH]cn1)C(=O)N[C@@H](Cc1ccccc1)C(=O)N[C@H](C(=O)N[C@@H](CC(=O)O)C(=O)N[C@@H](Cc1c[nH]cn1)C(=O)N[C@@H](Cc1ccccc1)C(=O)N[C@@H](CO)C(=O)NCC(=O)N[C@H](C(=O)N[C@@H](C)C(=O)NCC(=O)N[C@@H](CCC(=O)O)C(=O)N[C@@H](C)C(=O)N[C@@H](CC(C)C)C(=O)N[C@@H](CC(C)C)C(=O)N[C@@H](CO)C(=O)N[C@@H](Cc1ccc(O)cc1)C(N)=O)[C@@H](C)O)C(C)C [Peptide O07P107] (H-DFIHFVDHFSGTAGEALLSY-NH2) | − (symbol − indicates its absence, following criteria established in Example 2)
8 | CC(C)C[C@H](NC(=O)[C@H](C)NC(=O)[C@H](CCC(=O)O)NC(=O)CNC(=O)[C@H](C)NC(=O)[C@@H](NC(=O)CN)[C@@H](C)O)C(=O)N[C@@H](CC(C)C)C(=O)N[C@@H](CO)C(=O)N[C@@H](Cc1ccc(O)cc1)C(=O)N[C@@H](CC(N)=O)C(=O)N[C@@H](C)C(=O)N[C@@H](CO)C(=O)N[C@@H](CO)C(=O)N[C@@H](CC(N)=O)C(=O)N[C@H](C(=O)N[C@H](C(=O)N[C@@H](CC(=O)O)C(=O)N[C@@H](CC(C)C)C(=O)N[C@@H](CO)C(N)=O)[C@@H](C)O)C(C)C [Peptide O07P108] (H-GTAGEALLSYNASSNVTDLS-NH2) | − (symbol − indicates its absence, following criteria established in Example 2)
9 | CC[C@H](C)[C@H](NC(=O)[C@H](Cc1ccccc1)NC(=O)[C@H](CC(=O)O)NC(=O)[C@@H](NC(=O)[C@H](C)NC(=O)[C@@H](NC(=O)[C@@H](N)CC(=O)O)C(C)C)[C@@H](C)O)C(=O)N[C@H](C(N)=O)C(C)C [Peptide U07P78, DVATDFIV- amide] (H-DVATDFIV-NH2) | − (symbol − indicates its absence, following criteria established in Example 2)
10 | CC[C@H](C)[C@H](NC(=O)[C@@H](NC(=O)[C@H](CC(=O)O)NC(=O)[C@H](CC(N)=O)NC(=O)CNC(=O)[C@@H](N)CO)C(C)C)C(=O)N[C@H](C(=O)NCC(=O)N[C@@H](CC(N)=O)C(=O)N[C@@H](C)C(=O)N[C@@H](C)C(=O)N[C@@H](CC(N)=O)C(=O)N[C@@H](CC(N)=O)C(=O)N[C@H](C(=O)N[C@@H](CC(C)C)C(=O)N[C@@H](CCCCN)C(=O)NCC(=O)NCC(=O)N[C@@H](C)C(=O)NCC(N)=O)C(C)C)C(C)C [Peptide Y07P48] (H-SGNDVIVGNAANNVLKGGAG-NH2) | − (symbol − indicates its absence, following criteria established in Example 2)
11 | NSQKVIFAAWDAGGNDTFDF- amide (NSQKVIFAAWDAGGNDTFDF-NH2) [Peptide M07P38] | − (symbol − indicates its absence, following criteria established in Example 2)
